Data taken from US11040018B2, “Formulation for inhibiting formation of 5-HT2B agonists and methods of using same” (ZOGENIX INTERNATIONAL LIMITED, priority 2016, dated 2021).
“And” between values parts separate entries of the source, which are not always exact repeats. Equal entries are not always repeated.

Assays:
[1] = Drug-drug interaction clinical trial: fenfluramine co-administered with stiripentol, clobazam and valproate; plasma levels of fenfluramine and norfenfluramine; conditions: healthy volunteers; for Exposure impact: ratio of AUC0-72 for combination treatment to AUC0-72 for fenfluramine alone: single dose, fenfluramine 0.8 mg/kg with stiripentol 3,500 mg, clobazam 20 mg, valproate 25 mg/kg (≤1,500 mg), blood plasma, interim results
Experimental: The effects of co-administration of a three-drug regimen on fenfluramine metabolism and resultant plasma levels of fenfluramine and its metabolite norfenfluramine was assessed in a clinical trial using in healthy volunteers.
A randomized, open-label, single-dose, 3-way cross-over study was designed to examine the effects of co-administering fenfluramine with a three-drug cocktail consisting of stiripentol, clobazam, and valproate. Each patient was treated sequentially with three treatment regimens, each being administered individually, according to six different treatment sequences which were assigned randomly.
Subjects were recruited from an existing pool of volunteers or through direct advertising, Prospects who had participated in a study within three months prior of dosing were excluded from the pool of potential participants. A full medical history for the preceding 12-month period was obtained from each subject's primary care physician and evaluated. Patients were then assessed according to the inclusion and exclusion criteria shown below. Persons chosen as study participants underwent a screening visit prior to participation to reassess and confirm compliance with those criteria.
AUC0-72 values were calculated based on blood plasma levels of fenfluramine and norfenfluramine levels. Exposure impact is expressed as a ratio of AUC0-72 values determined for patients receiving the combination treatment to the AUC0-72 values determined for patients receiving fenfluramine alone.

5-HT2B receptor = 5-HT2B receptor (Homo sapiens, UniProt P41595); conditions: cited from earlier work
CYP1A2 = CYP1A2 (Homo sapiens, UniProt P05177); conditions: cited from earlier work
CYP2B6 = target: T1, CYP2B6 (Homo sapiens, UniProt P20813); conditions: cited from earlier work
T1 sequence (P20813 1-491): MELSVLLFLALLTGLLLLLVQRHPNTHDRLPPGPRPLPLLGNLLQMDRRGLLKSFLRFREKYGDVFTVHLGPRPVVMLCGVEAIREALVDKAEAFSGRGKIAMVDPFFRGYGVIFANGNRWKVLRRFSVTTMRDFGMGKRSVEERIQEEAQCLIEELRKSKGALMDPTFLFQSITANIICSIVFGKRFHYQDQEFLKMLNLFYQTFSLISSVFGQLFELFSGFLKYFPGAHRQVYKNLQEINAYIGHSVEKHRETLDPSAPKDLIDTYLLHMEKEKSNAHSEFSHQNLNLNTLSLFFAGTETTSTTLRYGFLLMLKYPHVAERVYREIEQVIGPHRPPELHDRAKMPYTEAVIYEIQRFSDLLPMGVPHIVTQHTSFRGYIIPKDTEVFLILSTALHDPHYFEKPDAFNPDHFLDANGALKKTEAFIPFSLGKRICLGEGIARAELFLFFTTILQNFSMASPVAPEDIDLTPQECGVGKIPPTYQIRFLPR

CYP2C8 = target: T2, CYP2C8 (Homo sapiens, UniProt P10632); conditions: cited from earlier work
T2 sequence (P10632 1-490): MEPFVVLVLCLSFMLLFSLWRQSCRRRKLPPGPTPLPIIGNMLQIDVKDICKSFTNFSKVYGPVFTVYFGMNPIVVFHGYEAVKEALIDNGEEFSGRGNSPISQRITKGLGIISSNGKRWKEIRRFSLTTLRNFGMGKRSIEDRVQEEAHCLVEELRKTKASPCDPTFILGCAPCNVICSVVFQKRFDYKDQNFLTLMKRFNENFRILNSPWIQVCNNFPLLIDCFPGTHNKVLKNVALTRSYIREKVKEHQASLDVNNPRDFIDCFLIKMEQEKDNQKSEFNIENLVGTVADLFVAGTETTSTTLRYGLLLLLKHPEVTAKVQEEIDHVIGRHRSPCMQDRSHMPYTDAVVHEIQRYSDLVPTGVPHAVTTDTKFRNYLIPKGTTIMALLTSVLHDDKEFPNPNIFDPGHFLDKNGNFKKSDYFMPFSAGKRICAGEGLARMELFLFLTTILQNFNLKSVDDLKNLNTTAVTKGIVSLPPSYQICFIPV

CYP2C9 = CYP2C9 (Homo sapiens, UniProt P11712); conditions: cited from earlier work
CYP2C19 = CYP2C19 (Homo sapiens, UniProt P33261); conditions: cited from earlier work
CYP2D6 = CYP2D6 (Homo sapiens, UniProt P10635); conditions: cited from earlier work
CYP3A4 [2] = target: CYP3A4 (Homo sapiens, UniProt P08684); conditions: cited from earlier work
CYP3A4 [3] = conditions: cited from earlier work

Sequence of CYP2C19 (P33261 whole entry): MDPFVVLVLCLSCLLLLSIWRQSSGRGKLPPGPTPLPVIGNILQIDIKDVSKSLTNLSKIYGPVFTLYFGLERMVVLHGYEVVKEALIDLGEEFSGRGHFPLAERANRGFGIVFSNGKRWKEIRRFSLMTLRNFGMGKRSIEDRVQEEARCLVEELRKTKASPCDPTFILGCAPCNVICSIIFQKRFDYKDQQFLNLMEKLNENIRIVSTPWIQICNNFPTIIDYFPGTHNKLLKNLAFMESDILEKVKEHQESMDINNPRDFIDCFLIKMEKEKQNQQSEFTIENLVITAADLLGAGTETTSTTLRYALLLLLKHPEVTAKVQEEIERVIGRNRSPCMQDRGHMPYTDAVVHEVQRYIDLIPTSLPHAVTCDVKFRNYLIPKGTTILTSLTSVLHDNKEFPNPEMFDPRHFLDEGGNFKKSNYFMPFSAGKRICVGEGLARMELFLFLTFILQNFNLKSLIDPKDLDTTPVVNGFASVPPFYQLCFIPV
Sequence of CYP3A4 (Homo sapiens, UniProt P08684) (P08684 whole entry): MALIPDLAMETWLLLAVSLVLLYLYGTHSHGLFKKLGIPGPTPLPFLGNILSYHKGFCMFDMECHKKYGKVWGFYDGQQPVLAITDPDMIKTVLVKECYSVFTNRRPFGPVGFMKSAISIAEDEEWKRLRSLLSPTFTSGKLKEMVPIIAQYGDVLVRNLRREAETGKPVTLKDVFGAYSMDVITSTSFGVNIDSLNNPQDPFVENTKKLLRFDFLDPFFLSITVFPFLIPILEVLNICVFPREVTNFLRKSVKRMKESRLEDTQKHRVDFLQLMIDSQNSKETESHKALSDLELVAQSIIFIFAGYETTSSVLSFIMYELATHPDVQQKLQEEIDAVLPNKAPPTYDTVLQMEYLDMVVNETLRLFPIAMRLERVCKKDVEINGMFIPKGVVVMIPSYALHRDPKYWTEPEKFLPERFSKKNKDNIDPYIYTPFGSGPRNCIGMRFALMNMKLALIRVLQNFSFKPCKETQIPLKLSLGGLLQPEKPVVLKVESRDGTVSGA
Sequence of CYP2D6 (P10635 whole entry): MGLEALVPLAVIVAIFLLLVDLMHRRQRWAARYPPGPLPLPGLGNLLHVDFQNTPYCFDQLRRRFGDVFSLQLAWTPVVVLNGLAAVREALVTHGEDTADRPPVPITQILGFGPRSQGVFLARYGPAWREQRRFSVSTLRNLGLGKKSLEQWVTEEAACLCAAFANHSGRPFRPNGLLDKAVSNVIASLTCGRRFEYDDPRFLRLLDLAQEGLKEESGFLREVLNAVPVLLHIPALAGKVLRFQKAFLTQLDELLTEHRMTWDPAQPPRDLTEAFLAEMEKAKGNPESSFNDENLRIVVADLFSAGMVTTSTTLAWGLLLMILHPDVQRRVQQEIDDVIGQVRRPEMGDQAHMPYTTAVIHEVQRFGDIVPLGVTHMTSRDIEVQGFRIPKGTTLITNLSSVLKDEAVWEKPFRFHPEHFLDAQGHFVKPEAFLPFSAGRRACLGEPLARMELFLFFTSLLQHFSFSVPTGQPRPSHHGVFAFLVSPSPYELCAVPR
Sequence of 5-HT2B receptor (P41595 whole entry): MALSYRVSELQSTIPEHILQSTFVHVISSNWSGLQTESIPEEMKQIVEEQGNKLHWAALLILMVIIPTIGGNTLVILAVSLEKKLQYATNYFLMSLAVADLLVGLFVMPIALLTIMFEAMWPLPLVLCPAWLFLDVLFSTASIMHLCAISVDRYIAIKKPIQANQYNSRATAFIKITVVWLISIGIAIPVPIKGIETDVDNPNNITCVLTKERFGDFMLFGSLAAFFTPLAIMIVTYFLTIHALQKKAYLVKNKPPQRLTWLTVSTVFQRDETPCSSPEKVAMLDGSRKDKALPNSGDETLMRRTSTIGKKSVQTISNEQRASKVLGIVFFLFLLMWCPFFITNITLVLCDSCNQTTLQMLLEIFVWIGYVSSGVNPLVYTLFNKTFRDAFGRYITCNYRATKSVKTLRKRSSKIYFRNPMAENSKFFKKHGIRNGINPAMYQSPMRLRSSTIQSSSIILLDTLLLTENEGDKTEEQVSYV
Sequence of CYP1A2 (P05177 whole entry): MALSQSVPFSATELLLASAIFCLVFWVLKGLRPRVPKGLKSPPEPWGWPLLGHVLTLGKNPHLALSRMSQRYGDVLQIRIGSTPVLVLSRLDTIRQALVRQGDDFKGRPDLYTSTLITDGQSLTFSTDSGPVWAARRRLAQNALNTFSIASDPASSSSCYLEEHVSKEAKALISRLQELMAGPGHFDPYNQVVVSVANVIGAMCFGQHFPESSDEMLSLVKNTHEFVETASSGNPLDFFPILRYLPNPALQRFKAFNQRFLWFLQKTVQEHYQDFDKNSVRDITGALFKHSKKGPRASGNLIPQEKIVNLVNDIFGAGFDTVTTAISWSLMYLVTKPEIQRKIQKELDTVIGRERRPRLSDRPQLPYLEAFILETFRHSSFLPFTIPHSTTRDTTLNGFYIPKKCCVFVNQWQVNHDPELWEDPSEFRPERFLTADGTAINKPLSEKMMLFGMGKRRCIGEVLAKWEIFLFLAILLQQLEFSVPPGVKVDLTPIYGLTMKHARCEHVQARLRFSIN
Sequence of CYP2C9 (P11712 whole entry): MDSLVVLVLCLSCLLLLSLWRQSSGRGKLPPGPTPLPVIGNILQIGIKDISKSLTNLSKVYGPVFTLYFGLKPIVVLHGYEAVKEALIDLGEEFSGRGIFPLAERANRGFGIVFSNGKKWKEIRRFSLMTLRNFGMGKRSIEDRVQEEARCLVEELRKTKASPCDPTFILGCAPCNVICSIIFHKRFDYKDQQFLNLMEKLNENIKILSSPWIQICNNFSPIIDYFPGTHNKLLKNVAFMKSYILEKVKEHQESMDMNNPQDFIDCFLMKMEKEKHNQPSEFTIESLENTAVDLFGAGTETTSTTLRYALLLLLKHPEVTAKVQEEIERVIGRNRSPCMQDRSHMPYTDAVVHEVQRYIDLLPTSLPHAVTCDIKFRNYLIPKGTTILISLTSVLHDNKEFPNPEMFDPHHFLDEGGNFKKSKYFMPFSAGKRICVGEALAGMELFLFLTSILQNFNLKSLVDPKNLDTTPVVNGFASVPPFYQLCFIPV

Compound	Exposure impact: ratio of AUC0-72 for combination treatment to AUC0-72 for fenfluramine alone [1]	Agonistic effect on 5-HT2B receptor (5-HT2B receptor)	Inhibition of CYP1A2 (CYP1A2)	Inhibition of CYP2C9 (CYP2C9)	Inhibition of CYP2C19 (CYP2C19)	Inhibition of CYP2D6 (CYP2D6)	Inhibition of CYP3A4 (CYP3A4 [2])	other results
CCNC(C)Cc1cccc(C(F)(F)F)c1 (racemic) [fenfluramine, 3-trifluoromethyl-N-ethylamphetamine]	1.66 and 1.67	does not have significant agonistic effects	–	–	–	–	–	–
C=C(C)[C@@H]1CCC(C)=C[C@H]1c1c(O)cc(CCCCC)cc1O [cannabidiol]	–	–	potent inhibitor of CYP1A2 (time-dependent effect)	inhibitory effects	inhibitory effects	inhibitory effects	potent inhibitor	Inhibition of CYP2B6 (CYP2B6): potent inhibitor; Inhibition of CYP2C8 (CYP2C8): inhibitory effects
CN1C(=O)CC(=O)N(c2ccccc2)c2cc(Cl)ccc21 [clobazam]	–	–	–	–	–	strongly inhibits	–	Induction of CYP3A4 (CYP3A4 [3]): weak inducer
CC(N)Cc1cccc(C(F)(F)F)c1 (stereo not drawn) [norfenfluramine]	0.59	particularly potent 5-HT2B agonist	–	–	–	–	–	Reduction of patient exposure to norfenfluramine ([1]; fenfluramine co-administered with stiripentol, clobazam and valproate): ~30%
CC(C)(C)C(O)/C=C/c1ccc2c(c1)OCO2 (stereo not drawn) [stiripentol]	–	–	strongly inhibits	less strongly	less strongly	–	strongly inhibits	–
